Test: Human HepG2 cell viability assay in 384 well format
Assay type: toxicity, cell-based
Parameters: dose 125 nL, time 70.5 hour; cytotoxicity at 70.5 h: concentration not given beside the values
Conditions: HepG2 cells, read-out: Inhibition

Row | SMILES | cytotoxicity at 70.5 h
1 | CCN(C(=O)Cc1ccc(NCc2nccn2C)cc1)c1ccccc1 | -6.33%
2 | CCc1nc2n(n1)CC(NCc1cn(C)nc1-c1cccnc1)CC2 (stereo not drawn) | -4.07%
3 | CC(c1ccccc1F)N1CCN(C(=O)Cc2ccncc2)CC1 (stereo not drawn) | -11.8%
4 | CCc1noc(CNc2cc3c(cc2Cl)OCCCO3)n1 | -11%
5 | COC(=O)c1ccc(C2CC(=O)Nc3c2cnn3C)cc1 (stereo not drawn) | 3.26%
6 | Cc1cccc(N2Cc3nc(=O)n(Cc4cccc(F)c4)n3C2=O)c1 | -18%
7 | CCN(CC)[C@H]1COC[C@@H]2CN(Cc3cnn(C)c3)C[C@@H]21 | -3.13%
8 | CCCS(=O)(=O)N1CCC(NC(=O)c2cc(C)c(CC)s2)CC1 | -12.1%
9 | Cc1nccn1-c1ccccc1CNC(=O)c1cn(CCN)nn1 | 1.29%
10 | Cc1cc(C2CCC2)nc(N(C)Cc2cc(-c3ccccn3)no2)n1 | -6.04%
11 | CC(O)CN1CCN(C(=O)c2cnn(-c3ccccc3Cl)c2)CC1 (stereo not drawn) | -2.98%
12 | Cn1cccc1C(=O)NC1CCN(c2ccc(OC(F)(F)F)cc2)CC1 | 16.6%
13 | CC1(C)CN(C(=O)c2occc2COc2cccc(C#N)c2)CCO1 | 3.19%
14 | Cc1noc(CSc2ccc(C(F)(F)F)cn2)n1 | -6.64%
15 | CC(C)(C)C(=O)N1CC(=O)N(Cc2ccco2)CC(O)C1 (stereo not drawn) | -4.89%
16 | CCc1ccc(CNC(=O)c2ccc(N3CCOC3=O)cc2)s1 | 20.2%
17 | CSc1cc(CNC(=O)CCOc2ccccc2C)ccn1 | -7.07%
18 | Cc1cc(NC(=O)CN2CCCC2c2c(C)nn(C)c2Cl)on1 (stereo not drawn) | -0.864%
19 | Cc1nn(C)cc1-c1cc(C(F)F)nc(NC2CCCCC2)n1 | -11.8%
20 | Cc1cc2[nH]c(CN3CCOC(c4ccc(Cl)cc4)C3)cc(=O)n2n1 (stereo not drawn) | -2.79%
21 | O=C(O)c1ccccc1-n1cnc(CN2CCc3ccccc32)c1 | -7.59%
22 | CC(Cc1ccco1)NC(=O)Nc1cccnc1 (stereo not drawn) | 2.87%
23 | O=C(c1ccc(Br)s1)N1CCN(Cc2ccc(OC(F)(F)F)cc2)CC1 | 1.44%

Row | SMILES | cytotoxicity at 70.5 h
24 | CNC(=O)c1[nH]nc2c1CN(c1cc(C3CCCNC3)nc(C)n1)CC2 (stereo not drawn) | -10.6%
25 | Cc1nc(CN2CCc3ncnc(-c4cccnc4)c3CC2)cs1 | 42.8%
26 | Cc1nc(CN(C)C(=O)c2cccc(CC3CCNCC3)c2)no1 | 26.4%
27 | CC(C)(C)CNCC1(O)CCCN(Cc2ccccc2F)C1=O (stereo not drawn) | 0.716%
28 | CN(CCc1cccs1)C1CCCN(Cc2noc(C3CC3)n2)C1 (stereo not drawn) | 8.79%
29 | Fc1ccc(CN2CCC(c3n[nH]c4nccnc34)CC2)cc1F | 7.75%
30 | c1cc([C@H]2C[C@@H]3CCN(Cc4nccs4)C[C@H]3O2)ncn1 | -3.39%
31 | O=C(NCCCn1ccnc1)C1CCC(=O)N1Cc1cccs1 (stereo not drawn) | -9.7%
32 | CC(CNC(=O)c1cnccn1)Oc1cccc(Br)c1 (stereo not drawn) | 12.9%
33 | c1ccc2c(c1)cnn2CCCNC1CCOC2(CCOCC2)C1 (stereo not drawn) | -13.6%
34 | Fc1cccc(-c2noc3c2CN(Cc2cncn2C2CC2)CC3)c1 | -11.3%
35 | CN(Cc1ccncc1)C(=O)NC1CCCN(c2ncccn2)C1 (stereo not drawn) | -1.22%
36 | CCOc1ccc(Cl)cc1C(C(=O)O)N1CCC(CO)CC1 (stereo not drawn) | 0.285%
37 | CS(=O)(=O)N[C@@H]1COC[C@@H]2CN(Cc3ccco3)C[C@@H]21 | -16.3%
38 | Cc1ccc(-c2cnc(CCC(=O)NCCN3CCOCC3)o2)cc1C | 2.52%
39 | COC(=O)c1sc(NCc2ccc(N3CCC(O)CC3)c(F)c2)nc1Cl | -4.16%
40 | COc1ccc(-c2cc(N)ccn2)c(OC)c1OC | -9.71%
41 | CC(C)N1CCCC2(CCN(c3nccc(C(F)(F)F)n3)C2)C1=O (stereo not drawn) | -3.02%
42 | CNc1nc2c(s1)C(c1cc(Cl)ccc1F)CC(=O)N2 (stereo not drawn) | 57.6%
43 | NC(=O)Cn1ccc(O)c(Cc2ccc(Cl)cc2Cl)c1=O | 3.22%
44 | CC(C)CNC(=O)N1CCOC2(CCNCC2)C1 | -3.81%
45 | O=C(NC1CCCN(CCc2ccccc2)C1)c1cnccn1 (stereo not drawn) | -3.22%
46 | COCCN1CC(c2nc(CSC)no2)CCC1=O (stereo not drawn) | 2.97%

Row | SMILES | cytotoxicity at 70.5 h
47 | COCCC1COC2(CCN(C(=O)c3ccco3)CC2)C1 (stereo not drawn) | -5.74%
48 | Cc1nccn1-c1cc(CNC(=O)CCNC(=O)OC(C)(C)C)ccn1 | -7.58%
49 | Fc1ccc(OCc2noc(CN3CCc4cncnc4C3)n2)cc1 | -4.28%
50 | Cn1cc2ncn(C3CCN(c4ccccc4F)CC3)c(=O)c2n1 | -11%
51 | C=C(C)CN(CC)C(=O)c1cc(Cl)ccc1NS(C)(=O)=O | -0.344%
52 | Cc1sc2ncnc(N3CCC(N(C)Cc4cnn(C)c4)CC3)c2c1C | 0.374%
53 | CN1CC(=O)N(c2ccccc2)CC12CCN(CC1CCOCC1)C2 (stereo not drawn) | 22.5%
54 | N#Cc1cccc(N2CC3(CCN(C(=O)NC4CC4)C3)CC2=O)c1 (stereo not drawn) | -4.14%
55 | CC(C1CC1)N(C)C(=O)CCn1cccn1 (stereo not drawn) | 8.62%
56 | Cc1ncnc2c1CCN(C(=O)CN(C)C)CC2 | 19.6%
57 | Cc1ccc(C(=O)N2C[C@H](N3CCOCC3)[C@@H]3OCCC[C@@H]32)cn1 | -9.11%
58 | Cc1cnc(N2CC[C@@H](N3CCOCC3)[C@@H]2Cc2ccncc2)nc1 | -1.98%
59 | CC(NC(=O)NCc1cccc(N2CCCC2=O)c1)c1ccccc1 (stereo not drawn) | -12.2%
60 | O=C(N1CCCO1)[C@@]12CCO[C@@H]1CCN(Cc1ccccn1)C2 | 2.18%
61 | C[C@@H]1C[C@H](C(F)(F)F)n2nc(C3CCN(C(=O)C(C)(C)C)CC3)cc2N1 | -6.86%
62 | Cc1cc(C)n(CC2CN(Cc3nc4ccccc4s3)CCO2)n1 (stereo not drawn) | -5.7%
63 | CCn1c(CN2CCN(CCOC)CC2)nc2c(F)cccc21 | 2.86%
64 | Nc1ncncc1-c1noc([C@@H]2CCCN2CCCc2ccccc2)n1 | -6.26%
65 | CN(Cc1nc2c(cnn2C)c(=O)[nH]1)Cc1ccccc1Cl | -4.36%
66 | c1cc(CN2CCC(Cc3noc(C4CC4)n3)CC2)c2c(c1)OCO2 | 0.325%
67 | c1ccc(OC[C@@H]2CCC[C@@]23CNCCO3)nc1 | 10.8%
68 | CN1C(=O)C2(CC(=O)Nc3c2cnn3C(C)(C)C)c2ccccc21 (stereo not drawn) | -18.7%
69 | CCOc1ccc(NC(=O)N2CCC(n3cncn3)CC2)cc1Cl | 19.7%

Row | SMILES | cytotoxicity at 70.5 h
70 | COc1ccccc1S(=O)(=O)Nc1cnc(O)cc1C | -10.5%
71 | CN(C)C(=O)CN1CC[C@H]2CN(C3CCOCC3)C[C@@H]2C1=O | -4.31%
72 | CN(CCCc1ccc(C(F)(F)F)cc1)Cc1nccn1C | -12%
73 | Cc1nc(CN2CCCC(N(C)CCOCC(F)(F)F)C2)no1 (stereo not drawn) | -6.75%
74 | Cc1ccsc1CN(C)C(=O)Cn1nc(-c2ccc(F)cc2)oc1=O | 4.04%
75 | COCCNC(=O)c1cccnc1Oc1ccc(Cl)cc1 | -7.58%
76 | COCCc1nc(-c2cnn3c(C)cc(C)nc23)no1 | -107%
77 | CCc1noc(CN(C)C(=O)c2ccccc2-c2ncn[nH]2)n1 | -2.67%
78 | CC(=O)c1ccc(S(=O)(=O)N2CCCC2CN2CCCC2)cc1 (stereo not drawn) | -8.94%
79 | NCC1Cc2cc(-c3nccc(N4CCC(O)CC4)n3)cc(F)c2O1 (stereo not drawn) | 6.33%
80 | Cc1csc2c(N3CCC(NCCCc4cnn(C)c4)CC3)ncnc12 | 2.87%
81 | COc1c(CNC2CCc3c(Cl)cccc32)c(C)nn1C (stereo not drawn) | -12.4%
82 | Cc1nc(CN2CCC23CCN(C(=O)c2ccco2)CC3)cs1 | -1.36%
83 | COCC1(CNc2cc(C(C)C)nc(N)n2)CC1 | 2.2%
84 | Fc1cccc(CN2CCN(Cc3cscn3)CC2)c1 | -4.73%
85 | Cc1cccc(-c2cc(-c3c(C)nn(CCO)c3C)c(C#N)c(N)n2)c1 | -11.4%
86 | CCOCC1CN(C(=O)c2ccncn2)Cc2cnn(CC)c21 (stereo not drawn) | -11.7%
87 | CCCc1nc(C)c(C(=O)NS(=O)(=O)c2cccnc2)s1 | -0.303%
88 | CN(C)C(=O)c1c[nH]nc1-c1ccc(CNC(=O)c2cnccn2)cc1 | -1.73%
89 | N#Cc1ccc(CN(CC(N)=O)C2CCCC2)cc1 | -9.26%
90 | CS(=O)(=O)NCc1ncn2c1CN(C(=O)CC1CCCC1)CCC2 | -5.42%
91 | Cn1c(CO)cnc1SC(C(=O)NC1CC1)c1ccccc1 (stereo not drawn) | -8.64%
92 | COCCCN(Cc1ccccc1Cl)C1CCS(=O)(=O)C1 (stereo not drawn) | 25.3%

Row | SMILES | cytotoxicity at 70.5 h
93 | Cc1ccc(C2(O)CCN(C(=O)c3sccc3S(N)(=O)=O)CC2)nc1 | -4.05%
94 | Cn1cc(CN2CCN3C[C@H](Oc4cccnc4)C[C@H]3C2)cn1 | -1.85%
95 | COc1c(C2CCCN2CC(=O)N2CCCCC2)c(C)nn1C (stereo not drawn) | 4.89%
96 | CCN(C(=O)CN1CCCC1c1ccc(OC)cc1)c1ccccc1C (stereo not drawn) | -0.0656%
97 | Cc1nc(C)n(C2CCCN(C(=O)c3ccc(N(C)C)nn3)C2)n1 (stereo not drawn) | -3.22%
98 | O=C(c1cccnc1)N1CCC2(CC1)CCN(Cc1ccccn1)C2=O | -9.02%
99 | Cc1cc(C)nc(Nc2cccc(C3CCCN(C(C)C)C3)n2)n1 (stereo not drawn) | -6.28%
100 | CSCc1cccc(NC(=O)N2CCC(N3CC=CC3)C2)c1 (stereo not drawn) | 35%
101 | O=C(CN(Cc1cccs1)C1CCS(=O)(=O)C1)NC1CCCCC1 (stereo not drawn) | 26.4%
102 | Cc1ccc(C(=O)Nc2cc(C(N)=O)ccc2N2CCCCC2)cc1F | -2.35%
103 | c1ccc(CN2CC[C@@H]3O[C@H](COCc4ccncc4)CC[C@@H]32)nc1 | -13%
104 | O=C(NCc1cccnc1)C1=NOC2(CCN(C(=O)N3CCCC3)C2)C1 (stereo not drawn) | -9.94%
105 | Cc1ccc(NC(=O)C2CCCN2C(=O)C2CC2)nc1 (stereo not drawn) | -3.51%
106 | Cc1nccn1-c1nccnc1C1CCCN(C)C1 (stereo not drawn) | -4.67%
107 | Cc1ccsc1CN(C)Cc1ncccc1C(=O)O | -2.01%
108 | Cn1cnc(S(=O)(=O)NCCCN2CCCC2=O)c1Cl | -2.39%
109 | Cn1cc(NC(=O)Cn2c(CS(C)(=O)=O)nc3ccccc32)cn1 | -6.35%
110 | Cc1ccc(CC2COCCN(S(C)(=O)=O)C2)nc1 (stereo not drawn) | 12.3%
111 | COc1cccc(SCC(=O)N2CCC(N3CCCC3=O)CC2)c1 | -6.36%
112 | CN1CCN(C(=O)c2cc(NC(=O)c3ccccc3)n(C)n2)CC1 | -12.7%
113 | CCCOCCN1CCc2[nH]c(-c3ccc(OC)cc3)nc2C1 | -17%
